Data as given in patent US20260001875A1, “AMINOPYRIMIDINYL DERIVATIVES FOR THE TREATMENT OF PARKINSON'S DISEASE” (UNIVERSITY OF DUNDEE, priority 2022, published 2026).

Assays:
Rab10 pThr73 [1] = test: Rab10 Thr73 dephosphorylation (immunoblot) in WT MEFs; format: cell-based, mouse; conditions: Mus musculus; for EC50: dose response, 4 h treatment, read-out: WT MEFs pRab10-dephosphrylation EC50
Summary of the method: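 Wild-type mouse embryonic fibroblasts in 6-well plates were treated with LRRK2 PROTACs, with two biological replicates per condition. Cells were washed in PBS and lysed on ice in buffer containing phosphatase and protease inhibitors plus 1% Triton X-100, then clarified at 15,000 g. Rab10 Thr73 phosphorylation was measured by quantitative immunoblotting of 15 to 20 μg protein on 4-12% Bis-Tris gels.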

Rab10 pThr73 [2] = test: Rab10 Thr73 dephosphorylation (immunoblot) in LRRK2^G2019S MEFs; format: cell-based; conditions: Mus musculus
LRRK2^WT = molecular target: T1, LRRK2^WT (Mus musculus, UniProt Q5S006); test: Western blot LRRK2 degradation in WT MEFs; format: cell-based; conditions: dose response, 4 h treatment; for Dmax: read-out: Dmax on WT MEFs
T1 construct: endogenous in cells; host or cells: primary wild-type mouse embryonic fibroblasts (MEFs)
Experimental: Western blot degradation assays for the LRRK2 protacs were performed with WT and PD-associated LRRK2 [G2019S] mouse embryonic fibroblasts (MEFs). The second-generation PROTACs were tested in parallel with the first generation PROTACs SD75, SD82, and SD100. The compounds were tested at 33 nM or […] concentrations for 4 hours or 24 hours, running two biological replicates per condition and achieving quantifications representative of both replicates. Analysis by quantitative immunoblotting was performed with readouts of the total LRRK2 (antibody recognizes epitope in C-terminus of protein), Rab10 pThr73 (physiological substrate) and LRRK2 pSer935 (biomarker phosphorylation site).
(§1) Primary MEFs were generated as described in a previous study (Wiggin et al., Mol. Cell Biol. 2002 April; 22(8):2871-81.). Briefly, the uterine horn was collected from adult female mice at day E12.5 and transferred to a 10 cm tissue culture dish containing cold PBS. Two forceps were used to tear the yolk sacs to isolate each embryo. Forceps were cleaned thoroughly with 70% ethanol between each embryo isolation. The embryos were culled, and a tissue piece was collected in a PCR tube for genotyping. The red tissue of the embryo, which grows to become the heart and liver, was removed. The remainder of the embryo was minced with a scalpel blade and incubated with 7.5 ml trypsin-EDTA solution for 10 minutes in a 37° C. tissue culture CO2 incubator. The dish was removed from the incubator and checked under a light microscope for single cells. 7.5 ml complete media was added to the trypsinised cells, and the cell suspension was transferred to a 15 ml Falcon tube, centrifuged at 1200 rpm for 5 minutes at room temperature. The trypsin was aspirated, the cell pellet was resuspended in 5 ml fresh complete media, and the cell suspension was plated in a 60 mm tissue culture dish and incubated in a 37° C., 5% CO2 tissue culture incubator. The MEFs at this stage were considered as passage 0 and were passaged and expanded for experimental use once the genotype was confirmed by allelic sequencing and immunoblotting. MEFs were cultured in Dulbecco's modified Eagle medium (DMEM) containing 10% (v/v) fetal bovine serum (FBS), 2 mM L-glutamine, 100 U/ml penicillin, and 100 μg/ml streptomycin supplemented with 1× non-essential amino acids and 1 mM sodium pyruvate.
Culturing and passaging of adherent cell lines were carried out using aseptic technique in CL1 or CL2 (for PBMC isolation) biological safety cabinets. All cells were incubated in a 37° C. incubator with 5% CO2. Cell lines were regularly tested for mycoplasma contamination. For western blot assay, the cells were seeded in 6-well plates. After treating with testing compounds at indicated concentrations and time period, the media was removed and the cells were washed with PBS and lysed in 100 μl ice-cold complete lysis buffer containing 50 mM Tris-HCl pH 7.4, 1 mM EGTA, 10 mM 2-glycerophosphate, 50 mM sodium fluoride, 5 mM sodium pyrophosphate, 270 mM sucrose, supplemented with 1 μg/ml microcystin-LR, 1 mM sodium orthovanadate, complete EDTA-free protease inhibitor cocktail (Roche) and 1% (v/v) Triton X-100. The cells were immediately placed on ice and were scraped and collected into 1.5 ml Eppendorf tubes. Cell lysates were incubated on ice for 10 minutes prior to centrifugation at 15,000 g at 4° C. for 15 minutes. The cell pellet was discarded, and supernatant was collected for analysis by quantitative immunoblotting. For long term storage, the supernatant was flash frozen and stored at −80° C. Protein concentrations of cell lysates were determined using the Bradford assay.
Cell lysates containing a quarter of a volume of 4× NuPAGE LDS sample buffer (NP0007) supplemented with 5% β-mercaptoethanol, were heated at 95° C. for 5 minutes. […]

Rab10 pThr73 [3] = test: Rab10 Thr73 dephosphorylation (immunoblot) in LRRK2^G2019S MEFs; format: cell-based, mouse; conditions: Mus musculus; for EC50: dose response, 4 h treatment, read-out: G2019S MEFs-pRab10-dephosphorylation EC50
LRRK2^G2019S = molecular target: T2, LRRK2^G2019S (Mus musculus, UniProt Q5S006, G2019S); test: Western blot LRRK2 degradation in LRRK2^G2019S MEFs; format: cell-based; conditions: dose response, 4 h treatment; for Dmax: read-out: Dmax on G2019S MEFs
T2 construct: endogenous in cells; host or cells: LRRK2[G2019S] mouse embryonic fibroblasts (MEFs)
Experimental: The second-generation PROTACs were tested in parallel with the first generation PROTACs SD75, SD82, and SD100. The compounds were tested at 33 nM or […] concentrations for 4 hours or 24 hours, running two biological replicates per condition and achieving quantifications representative of both replicates. Analysis by quantitative immunoblotting was performed with readouts of the total LRRK2 (antibody recognizes epitope in C-terminus of protein), Rab10 pThr73 (physiological substrate) and LRRK2 pSer935 (biomarker phosphorylation site).
as §1
Culturing and passaging of adherent cell lines were carried out using aseptic technique in CL1 or CL2 (for PBMC isolation) biological safety cabinets. All cells were incubated in a 37° C. incubator with 5% CO2. Cell lines were regularly tested for mycoplasma contamination. For western blot assay, the cells were seeded in 6-well plates. […] The cells were immediately placed on ice and were scraped and collected into 1.5 ml Eppendorf tubes. Cell lysates were incubated on ice for 10 minutes prior to centrifugation at 15,000 g at 4° C. for 15 minutes. The cell pellet was discarded, and supernatant was collected for analysis by quantitative immunoblotting. For long term storage, the supernatant was flash frozen and stored at −80° C. Protein concentrations of cell lysates were determined using the Bradford assay.
Cell lysates containing a quarter of a volume of 4× NuPAGE LDS sample buffer (NP0007) supplemented with 5% β-mercaptoethanol, were heated at 95° C. for 5 minutes. 15 to 20 μg of samples were loaded onto pre-cast 4-12% Bis-Tris midi 20W or 26W gels (Thermofisher Scientific®, Cat #WG1402BOX or WG1403BOX) and resolved at 130 V for 2 hours with NuPAGE MOPS SDS running buffer (Thermofisher Scientific® Cat #NP0001-02). Proteins were electrophoretically transferred onto a 0.45 μm nitrocellulose membrane (GE Healthcare, Amersham Protran® Supported 0.45 mm NC) at 90 V for 90 min on ice in transfer buffer (48 mM Tris base and 39 mM glycine supplemented with 20% methanol). The transferred membrane was blocked with 5% (w/v) skim milk powder dissolved in tris-buffered saline with tween (TBS-T) (50 mM Tris base, 150 mM sodium chloride (NaCl), 0.1% (v/v) Tween-20) at room temperature for 1 hour.

[4] = 33 nM/4 h treatment, read-out: pRab10 inhibited in WT MEFs
[5] = 33 nM/24 h treatment, read-out: pRab10 inhibited in WT MEFs
[6] = 1 μM/4 h treatment, read-out: pRab10 inhibited in WT MEFs
[7] = 1 μM/24 h treatment, read-out: pRab10 inhibited in WT MEFs
[8] = 33 nM/4 h treatment, read-out: pRab10 inhibited in LRRK2^G2019S MEFs
[9] = 33 nM/24 h treatment, read-out: pRab10 inhibited in LRRK2^G2019S MEFs
[10] = 1 μM/4 h treatment, read-out: pRab10 inhibited in LRRK2^G2019S MEFs
[11] = 1 μM/24 h treatment, read-out: pRab10 inhibited in LRRK2^G2019S MEFs

T2 sequence (Q5S006 whole entry G2019S): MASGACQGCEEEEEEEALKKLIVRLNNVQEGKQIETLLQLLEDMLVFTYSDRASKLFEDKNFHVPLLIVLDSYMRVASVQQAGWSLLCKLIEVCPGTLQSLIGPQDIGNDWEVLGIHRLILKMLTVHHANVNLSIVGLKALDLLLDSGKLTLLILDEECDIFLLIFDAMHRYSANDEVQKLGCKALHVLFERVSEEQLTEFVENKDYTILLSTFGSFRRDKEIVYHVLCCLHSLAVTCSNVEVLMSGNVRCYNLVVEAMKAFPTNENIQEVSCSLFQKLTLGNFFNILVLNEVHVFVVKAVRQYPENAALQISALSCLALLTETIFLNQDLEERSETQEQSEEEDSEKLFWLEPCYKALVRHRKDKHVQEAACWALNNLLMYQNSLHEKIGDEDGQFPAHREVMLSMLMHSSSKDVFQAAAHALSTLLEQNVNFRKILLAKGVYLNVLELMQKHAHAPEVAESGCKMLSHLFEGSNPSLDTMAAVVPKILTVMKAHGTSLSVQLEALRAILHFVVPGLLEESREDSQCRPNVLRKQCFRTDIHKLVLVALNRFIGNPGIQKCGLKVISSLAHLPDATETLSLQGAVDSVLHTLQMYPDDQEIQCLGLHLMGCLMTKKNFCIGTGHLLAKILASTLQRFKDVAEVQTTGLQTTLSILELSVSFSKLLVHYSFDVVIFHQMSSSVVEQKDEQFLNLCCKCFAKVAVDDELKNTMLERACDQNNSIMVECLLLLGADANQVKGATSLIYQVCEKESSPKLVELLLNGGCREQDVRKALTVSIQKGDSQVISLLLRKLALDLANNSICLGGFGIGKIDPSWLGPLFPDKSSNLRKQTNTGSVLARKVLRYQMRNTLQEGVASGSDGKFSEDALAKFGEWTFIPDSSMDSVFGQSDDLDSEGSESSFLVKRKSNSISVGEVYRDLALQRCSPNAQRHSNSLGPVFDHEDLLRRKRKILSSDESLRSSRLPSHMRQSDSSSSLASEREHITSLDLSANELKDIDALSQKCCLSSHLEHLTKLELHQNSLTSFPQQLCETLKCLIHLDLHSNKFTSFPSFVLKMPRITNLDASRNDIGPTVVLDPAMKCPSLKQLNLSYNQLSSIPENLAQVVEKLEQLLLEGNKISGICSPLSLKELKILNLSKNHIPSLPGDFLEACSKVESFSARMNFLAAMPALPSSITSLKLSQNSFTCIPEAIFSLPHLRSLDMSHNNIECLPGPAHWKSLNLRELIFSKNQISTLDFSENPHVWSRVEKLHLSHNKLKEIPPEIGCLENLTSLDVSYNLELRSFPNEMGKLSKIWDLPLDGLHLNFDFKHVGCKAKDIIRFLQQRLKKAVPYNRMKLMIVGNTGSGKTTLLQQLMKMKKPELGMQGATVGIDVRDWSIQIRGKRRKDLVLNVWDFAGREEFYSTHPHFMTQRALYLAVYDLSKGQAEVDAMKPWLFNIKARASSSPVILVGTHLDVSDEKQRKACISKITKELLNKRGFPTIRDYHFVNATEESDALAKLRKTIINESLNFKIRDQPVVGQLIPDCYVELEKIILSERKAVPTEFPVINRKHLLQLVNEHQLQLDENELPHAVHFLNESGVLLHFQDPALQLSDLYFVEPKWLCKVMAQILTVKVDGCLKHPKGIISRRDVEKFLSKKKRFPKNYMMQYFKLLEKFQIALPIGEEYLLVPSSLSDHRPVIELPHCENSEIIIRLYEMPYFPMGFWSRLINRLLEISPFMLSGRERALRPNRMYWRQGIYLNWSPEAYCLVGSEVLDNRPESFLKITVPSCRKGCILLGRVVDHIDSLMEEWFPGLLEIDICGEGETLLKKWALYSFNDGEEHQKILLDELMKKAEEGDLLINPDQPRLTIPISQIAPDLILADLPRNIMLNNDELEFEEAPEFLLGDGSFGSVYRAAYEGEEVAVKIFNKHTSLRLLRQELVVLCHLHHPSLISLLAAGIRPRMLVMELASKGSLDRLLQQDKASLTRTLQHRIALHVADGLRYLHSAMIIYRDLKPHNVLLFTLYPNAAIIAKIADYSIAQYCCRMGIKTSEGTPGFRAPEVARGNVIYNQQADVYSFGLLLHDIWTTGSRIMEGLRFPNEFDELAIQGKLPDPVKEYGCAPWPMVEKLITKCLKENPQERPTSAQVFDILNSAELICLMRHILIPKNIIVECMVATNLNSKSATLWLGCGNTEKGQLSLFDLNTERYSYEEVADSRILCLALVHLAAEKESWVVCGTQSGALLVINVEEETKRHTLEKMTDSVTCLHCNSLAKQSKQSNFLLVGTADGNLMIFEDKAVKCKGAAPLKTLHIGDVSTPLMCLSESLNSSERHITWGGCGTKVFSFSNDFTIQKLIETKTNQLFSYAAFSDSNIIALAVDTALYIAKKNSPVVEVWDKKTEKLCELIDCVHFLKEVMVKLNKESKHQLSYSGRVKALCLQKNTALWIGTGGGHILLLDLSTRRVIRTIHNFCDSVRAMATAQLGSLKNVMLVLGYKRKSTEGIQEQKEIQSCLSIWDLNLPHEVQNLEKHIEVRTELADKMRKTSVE
T1 sequence (Q5S006 whole entry): as the sequence (Q5S006 whole entry G2019S) above, with S2019G counted along it

| Structure (SMILES) | inhibition at 0.033 µM (Rab10 pThr73 [1]; [4]) [%] | inhibition at 0.033 µM (Rab10 pThr73 [1]; [5]) [%] | inhibition at 1 µM (Rab10 pThr73 [1]; [6]) [%] | inhibition at 1 µM (Rab10 pThr73 [1]; [7]) [%] | EC50 (Rab10 pThr73 [1]) [nM] | inhibition at 0.033 µM (Rab10 pThr73 [2]; [8]) [%] | inhibition at 0.033 µM (Rab10 pThr73 [2]; [9]) [%] | DC50 (LRRK2^WT) [nM] | Dmax (LRRK2^WT) [%] | inhibition at 1 µM (Rab10 pThr73 [3]; [10]) [%] | inhibition at 1 µM (Rab10 pThr73 [3]; [11]) [%] | EC50 (Rab10 pThr73 [3]) [nM] | DC50 (LRRK2^G2019S) [nM] | Dmax (LRRK2^G2019S) [%] | other results |
| --- | --- | --- | --- | --- | --- | --- | --- | --- | --- | --- | --- | --- | --- | --- | --- |
| CNc1nc(Nc2ccc(OC3CCN(C[C@H]4CC[C@H](CSC(C)(C)C(NC(=O)C5(F)CC5)C(=O)N5C[C@H](O)C[C@H]5C(=O)NCc5ccc(-c6scnc6C)cc5)CC4)CC3)cc2OC)ncc1Cl (stereo partly drawn) [XL02017, (2S,4R)-1-((S)-3-((((1R,4S)-4-((4-(4-((5-chloro-4-(methylamino)pyrimidin-2-yl)amino)-3-methoxyphenoxy)piperidin-1-yl)methyl)cyclohexyl)methyl)thio)-2-(1-fluorocyclopropane-1-carboxamido)-3-methylbutanoyl)-4-hydroxy-N-(4-(4-methylthiazol-5-yl)benzyl)pyrrolidine-2-carboxamide] | 0 to 70 | 0 to 80 | 80 to 100 | 80 to 100 | 83 | 0 to 90 | 30 to 90 | 44 | 68 | 10 to 100 | 80 to 100 | 25 | 22 | 79 |  |
| CNc1nc(Nc2ccc(C(=O)N3CCN(C[C@@H]4CCC[C@H](CSC(C)(C)[C@H](NC(=O)C5(F)CC5)C(=O)N5C[C@H](O)C[C@H]5C(=O)NCc5ccc(-c6scnc6C)cc5)C4)CC3)cc2OC)ncc1Cl [XL02063, (2S,4R)-1-((R)-3-((((1S,3R)-3-((4-(4-((5-chloro-4-(methylamino)pyrimidin-2-yl)amino)-3-methoxybenzoyl)piperazin-1-yl)methyl)cyclohexyl)methyl)thio)-2-(1-fluorocyclopropane-1-carboxamido)-3-methylbutanoyl)-4-hydroxy-N-(4-(4-methylthiazol-5-yl)benzyl)pyrrolidine-2-carboxamide] | 0 to 70 | 0 to 80 | 80 to 100 | 80 to 100 |  | 0 to 90 | 30 to 90 |  |  | 10 to 100 | 80 to 100 |  |  |  |  |
| CNc1nc(Nc2ccc(C(=O)N3CCC4(CCN(CCCSC(C)(C)[C@H](NC(=O)C5(F)CC5)C(=O)N5C[C@H](O)C[C@H]5C(=O)NCc5ccc(-c6scnc6C)cc5)CC4)CC3)cc2OC)ncc1Cl [XL02067B, (2S,4R)-1-((R)-3-((3-(9-(4-((5-chloro-4-(methylamino)pyrimidin-2-yl)amino)-3-methoxybenzoyl)-3,9-diazaspiro[5.5]undecan-3-yl)propyl)thio)-2-(1-fluorocyclopropane-1-carboxamido)-3-methylbutanoyl)-4-hydroxy-N-(4-(4-methylthiazol-5-yl)benzyl)pyrrolidine-2-carboxamide] |  |  |  |  |  |  |  |  |  |  |  |  |  |  | inhibition at 0.033 µM (Rab10 pThr73 [1]; read-out: pRab10 inhibited in WT MEFs, 33 nM/4 h treatment): 0 to 70%; inhibition at 0.033 µM (Rab10 pThr73 [1]; read-out: pRab10 inhibited in WT MEFs, 33 nM/24 h treatment): 0 to 80%; inhibition at 1 µM (Rab10 pThr73 [1]; read-out: pRab10 inhibited in WT MEFs, 1 μM/4 h treatment): 80 to 100%; inhibition at 1 µM (Rab10 pThr73 [1]; read-out: pRab10 inhibited in WT MEFs, 1 μM/24 h treatment): 80 to 100%; inhibition at 0.033 µM (Rab10 pThr73 [2]; read-out: pRab10 inhibited in LRRK2^G2019S MEFs, 33 nM/4 h treatment): 0 to 90%; inhibition at 0.033 µM (Rab10 pThr73 [2]; read-out: pRab10 inhibited in LRRK2^G2019S MEFs, 33 nM/24 h treatment): 30 to 90%; inhibition at 1 µM (Rab10 pThr73 [3]; read-out: pRab10 inhibited in LRRK2^G2019S MEFs, 1 μM/4 h treatment): 10 to 100%; inhibition at 1 µM (Rab10 pThr73 [3]; read-out: pRab10 inhibited in LRRK2^G2019S MEFs, 1 μM/24 h treatment): 80 to 100% |
| CNc1nc(Nc2ccc(C(=O)N3CCN(C[C@H]4CO[C@H](CSC(C)(C)[C@@H](NC(=O)C5(F)CC5)C(=O)N5C[C@H](O)C[C@H]5C(=O)NCc5ccc(-c6scnc6C)cc5)CO4)CC3)cc2OC)ncc1Cl [XL02098, (2S,4R)-1-((S)-3-((((2S,5S)-5-((4-(4-((5-chloro-4-(methylamino)pyrimidin-2-yl)amino)-3-methoxybenzoyl)piperazin-1-yl)methyl)-1,4-dioxan-2-yl)methyl)thio)-2-(1-fluorocyclopropane-1-carboxamido)-3-methylbutanoyl)-4-hydroxy-N-(4-(4-methylthiazol-5-yl)benzyl)pyrrolidine-2-carboxamide] |  |  | 75 to 90 |  | 282 |  |  | 50 | 59 | 80 to 100 |  | 157 | 45 | 81 |  |
